System: human iPSC
Test: Jak2 V617F single base pair editing in hiPSC, HR and NHEJ by MiSeq
Format: cell-based
From the text: FIGS. 6A-C. Bcl-2 overexpression increases the efficiency of engineering single base pair changes using ssODN donors in human iPSC. FIG. 6A. A sgRNA was designed to target exon 14 of human JAK2. The V617F mutation was encoded within 110 bp ssODN donors (in either the plus or minus orientation) or a plasmid containing 1.9 kb and 1.3 kb flanking homology arms. Small triangles indicate the primer sites for the genotyping PCR reaction outside the ssODN sequence. Plain human iPSC were transfected with 2 μg “Cas9 only sgRNA” or “Cas9 Bcl-2 sgRNA” expression plasmid and/or 10 μM ssODN or 2 μg V617F plasmid donor. 17 days later, cells were harvested for genomic DNA purification. The genomic region around exon 14 was PCR amplified and analyzed by MiSeq. FIG. 6B. […] The percent of MiSeq reads containing the Jak2 V617F mutation (HR) or indel mutations (NHEJ) is indicated together with a plot of bp position along the PCR product versus the number of sequencing reads. […]
A second round of nested PCR with PCR index primers sold under the trademark NEXTERA™ index primers (IIlumina) was used to add barcodes and remaining adaptor sequences. Both PCR reactions were supplemented with fluorescent dye sold under the trademark SYBR® Green (Invitrogen) and monitored on a quantitative PCR machine to prevent over-amplification. […]

## Bcl-2: B cell lymphoma 2 protein, anti-apoptotic, overexpressed from lentivirus or Cas9 plasmid
Oligo (ssODN) donors, Bcl-2 on the Cas9 plasmid
  increase of absolute recombination frequency (HR): 2-4 fold
Plasmid donor, Bcl-2 on the Cas9 plasmid (from 25% without)
  absolute recombination frequency (HR): 39%
